{"source": "patent US4603132A", "about": "“Phenothiazine compounds with anti-bronchospastic activity and pharmaceutical compositions containing them” (priority 1984, dated 1986)", "key": {"bronchial asthma": {"system": "bronchial asthma", "settings": "literature, in words; cited from earlier work"}, "[1]": {"system": "bronchospasm induced by ACh i.v.", "settings": "for ED50: Cavia porcellus, iv, anestetized guinea pig, ACh i.v."}, "[2]": {"system": "isolated trachea of guinea pig (methacholine)", "settings": "for IC50: Cavia porcellus; for activity greater than mequitazine: isolated guinea pig trachea, methacholine"}, "[3]": {"system": "isolated ileum of guinea pig (PGF2 alpha)", "assay": "spasm induced by PGF2 alpha in the isolated ileum of guinea pig"}, "[4]": {"system": "isolated ileum of guinea pig (ACh)", "assay": "spasm induced by ACh in the isolated ileum of guinea pig"}, "[5]": {"assay": "acute toxicity test in the mouse", "format": "in vivo", "settings": "for LD50: in vivo"}, "[6]": {"system": "bronchospasm induced by histamine aerosol", "settings": "for ED50: Cavia porcellus, iv"}, "[7]": {"system": "isolated ileum of guinea pig (histamine)", "assay": "spasm induced by histamine in the isolated ileum of guinea pig"}, "[8]": {"system": "isolated ileum of guinea pig (serotonine)", "assay": "spasm induced by serotonine in the isolated ileum of guinea pig"}, "[9]": {"system": "bronchospasm induced by ACh aerosol", "settings": "for activity in bronchospasm induced by ACh aerosol: awake guinea pig, in words, i.v. in b22, mequitazine at doses up to 20 times higher or essentially subtoxic"}, "[10]": {"system": "hypotension induced by ACh i.v.", "assay": "inhibition of the hypotension induced by ACh i.v. in the anestetized rat (systemic effect; absorption by inhalation)", "format": "in vivo", "settings": "for absorption through inhalatory route: i.v. vs inhalation, in words", "description": "The absorption of compound (I) by inhalation in comparison with mequitazine has been studied by comparing their sistemic effects with intravenous and inhalatory routes. The inhibiting effect of the tested compounds on the hypotension induced by ACh i.v. in the anestetized rat has been used."}, "[11]": {"system": "isolated trachea of guinea pig (KCl)", "assay": "spasm induced by KCl in the isolated trachea of guinea pig", "settings": "for IC50: Cavia porcellus"}, "bronchospasm": {"system": "bronchospasm", "assay": "anti-bronchospastic activity (general statement)", "settings": "in words"}, "[12]": {"system": "isolated trachea of guinea pig (histamine)", "assay": "spasm induced by histamine in the isolated trachea of guinea pig", "settings": "for IC50: Cavia porcellus"}, "H1 receptors": {"system": "H1 receptors", "settings": "literature, in words, cited from earlier work"}, "[13]": {"settings": "listed as 3-(10-H-phenothiazin-methyl)-1-methyl-1-azoniabicyclo[2.2.2]-octane iodide"}, "[14]": {"settings": "vs classic anti-histaminic drugs"}}, "note": "Where two headings read alike, the source gives them in different places."}
{"smiles": "CC(CN1c2ccccc2Sc2ccccc21)N(C)C", "note": "(centres unmarked) [promethazine]", "values": [{"measurement": "effect in bronchial asthma / bronchial hyperreactivity", "setting": "bronchial asthma", "value": "singularly inefficacious in the bronchial asthma"}]}
{"smiles": "C[N+]12CCC(CC1)C(CN1c3ccccc3Sc3ccccc31)C2", "note": "(centres unmarked) [compound (I), 3-(10-H-phenothiazin-methyl)-1-methyl-1-azoniabicyclo[2.2.2]-octane iodide]", "values": [{"measurement": "ED50", "setting": "[1]; compound by inhalatory route", "value": 0.026, "unit": "µmol/kg"}, {"measurement": "ED50", "setting": "[1]; compound by venous route", "value": 0.051, "unit": "µmol/kg"}, {"measurement": "anti-bronchospastic activity higher than that of mequitazine", "setting": "[1]; inhalatory route", "value": 20, "unit": "times"}, {"measurement": "activity higher than that of mequitazine", "setting": "[1]; venous route", "value": 13, "unit": "times"}, {"measurement": "IC50", "setting": "[2]", "value": 0.034, "unit": "µM"}, {"measurement": "activity greater than mequitazine", "setting": "[2]", "value": 1200, "unit": "times"}, {"measurement": "activity greater than mequitazine", "setting": "[2]; [13]", "value": 1000, "unit": "times"}, {"measurement": "times more active than mequitazine", "setting": "[3]", "value": 2, "unit": "times"}, {"measurement": "times more active than mequitazine", "setting": "[4]", "value": 7, "unit": "times"}, {"measurement": "LD50", "setting": "[5]; iv", "value": 3.15, "unit": "mg/kg"}, {"measurement": "LD50", "setting": "[5]; oral route", "value": "~700", "unit": "mg/kg"}, {"measurement": "absorption by oral route", "setting": "[5]; inferred from i.v. vs oral LD 50, in words", "value": "very modest"}, {"measurement": "ED50", "setting": "[6]", "value": 0.12, "unit": "µmol/kg"}, {"measurement": "activity higher than that of mequitazine", "setting": "[6]; awake guinea pig, histamine aerosol, i.v.", "value": "about 5 times"}, {"measurement": "times more active than mequitazine", "setting": "[7]", "value": 15, "unit": "times"}, {"measurement": "times more active than mequitazine", "setting": "[8]", "value": 6, "unit": "times"}, {"measurement": "ED50", "setting": "[9]; Cavia porcellus, iv", "value": 0.41, "unit": "µmol/kg"}, {"measurement": "activity in bronchospasm induced by ACh aerosol", "setting": "[9]", "value": "intense and dose-dependent activity"}, {"measurement": "activity in bronchospasm induced by ACh aerosol", "setting": "[9]; [13]", "value": "remarkable power"}, {"measurement": "ED50", "setting": "[10]; Rattus norvegicus, iv", "value": 1.17, "unit": "µmol/kg"}, {"measurement": "absorption through inhalatory route", "setting": "[10]; anestetized rat", "value": "very poorly absorbed"}, {"measurement": "absorption lower than that of mequitazine", "setting": "[10]; inhalatory route", "value": "at least 24 times"}, {"measurement": "ED50", "setting": "[10]; inhibition of hypotension, anestetized rat, inhalatory administration", "value": "can not be calculated (25 μmol/kg)"}, {"measurement": "IC50", "setting": "[11]", "value": 38, "unit": "µM"}, {"measurement": "activity greater than mequitazine", "setting": "[11]; isolated guinea pig trachea, KCl", "value": 3, "unit": "times"}, {"measurement": "anti-bronchospastic activity", "setting": "bronchospasm", "value": "powerful anti-bronchospastic activity"}, {"measurement": "IC50", "setting": "[12]", "value": 0.074, "unit": "µM"}, {"measurement": "activity greater than mequitazine", "setting": "[12]; isolated guinea pig trachea, histamine", "value": 50, "unit": "times"}]}
{"smiles": "CN(C)CCC(c1ccc(Cl)cc1)c1ccccn1", "note": "(centres unmarked) [clopheniramine]", "values": [{"measurement": "effect in bronchial asthma / bronchial hyperreactivity", "setting": "bronchial asthma", "value": "singularly inefficacious in the bronchial asthma"}]}
{"smiles": "COc1ccc(CN(CCN(C)C)c2ccccn2)cc1", "note": "[mepyramine]", "values": [{"measurement": "effect in bronchial asthma / bronchial hyperreactivity", "setting": "bronchial asthma", "value": "singularly inefficacious in the bronchial asthma"}]}
{"smiles": "c1ccc2c(c1)Sc1ccccc1N2CC1CN2CCC1CC2", "note": "(centres unmarked) [mequitazine, reference compound]", "values": [{"measurement": "ED50", "setting": "[1]; compound by inhalatory route", "value": 0.499, "unit": "µmol/kg"}, {"measurement": "ED50", "setting": "[1]; compound by venous route", "value": 0.674, "unit": "µmol/kg"}, {"measurement": "IC50", "setting": "[2]", "value": 40, "unit": "µM"}, {"measurement": "LD50", "setting": "[5]; iv", "value": 23.7, "unit": "mg/kg"}, {"measurement": "LD50", "setting": "[5]; oral route", "value": "~350", "unit": "mg/kg"}, {"measurement": "ED50", "setting": "[6]", "value": 0.65, "unit": "µmol/kg"}, {"measurement": "effect in bronchial asthma / bronchial hyperreactivity", "setting": "bronchial asthma", "value": "protective action"}, {"measurement": "absorption through inhalatory route", "setting": "[10]; anestetized rat", "value": "complete absorption"}, {"measurement": "ED50", "setting": "[10]; inhaled or nasal, inhibition of hypotension, anestetized rat, inhalatory administration, read-out: ED 50", "value": 4.06, "unit": "µmol/kg"}, {"measurement": "ED50", "setting": "[10]; iv, inhibition of hypotension, anestetized rat, i.v. route, read-out: ED 50", "value": 4.01, "unit": "µmol/kg"}, {"measurement": "IC50", "setting": "[11]", "value": 110, "unit": "µM"}, {"measurement": "anti-bronchospastic activity", "setting": "bronchospasm", "value": "very slightly active or even inactive"}, {"measurement": "action on H1 receptors", "setting": "H1 receptors", "value": "histamine antagonism at the level of the H1 receptors"}, {"measurement": "duration of action", "setting": "H1 receptors; [14]", "value": "long lasting action"}, {"measurement": "side effects of the CNS level", "setting": "H1 receptors; [14]", "value": "scarcity of side effects"}, {"measurement": "IC50", "setting": "[12]", "value": 3.7, "unit": "µM"}]}
